SMILES strings stand for the structures.

Assay [1] concerns the target T1, GLP-1 R (Homo sapiens, UniProt P43220). Briefly: DiscoveRx LeadHunter cellular assay, cAMP stimulation, GLP-1 receptor. It counts as cell-based. Here is the method:
(§1) § means superagonist A further series of cellular assays were carried out using standard cellular assays (DiscoveRx, LeadHunter assays) using readout of cAMP stimulation or arrestin activation. Compounds were weighed precisely in an amount of approximately 1 mg and shipped to DiscoveRx for dilution and assay.

A further assay addresses T2, glucagon R (Homo sapiens, UniProt P47871).
T2 construct: host or cells: CHO cells
Put plainly: DiscoveRx LeadHunter cellular assay, cAMP stimulation, glucagon receptor. It is filed as cell-based. The method, then:
as §1

In another assay the test system is db/db mice. Briefly: In vivo assay in db/db mice (blood glucose, body weight, food consumption). Particulars: for db/db mice - Mean Blood Glucose, 10 hr: 10 hr after first dose; for db/db mice - Mean Blood Glucose, 24 hr: 24 hr after first dose; for db/db mice - Mean Blood Glucose, 48 hr: 48 hr after first dose. Here is the method:
The 60 female db/db B6BKS (D) Leprdb/J (strain 000697) mice for this study were approximately 8 to 9 weeks old at arrival (Jackson Laboratory, Bar Harbor, Me.). […] One group of 8 female mice served as the vehicle control and received the vehicle, 0.2% BSA in saline, pH 7.4. One additional group of 8 female mice received the positive control article, liraglutide, at a dose level of 50 nmoles/kg. The test articles, vehicle, and positive control article were administered on Day 1, at approximately 0, 7, and 24 hours during the study via subcutaneous injection at a dose volume of 6 mL/kg.
Clinical observations were conducted at receipt, prior to randomization, and daily from Days 1 to 5. Body weights were measured and recorded at receipt, prior to randomization, and daily from Days 1 to 5. Food consumption was measured and recorded daily from Days 1 to 5. Blood samples for glucose analysis were collected pretest (Day −3) and at 0, 1, 2, 4, 8, 10, 24, 48, 72, and 96 hours following the first dose on Day 1. At study termination all animals were euthanized and the carcasses were discarded without further evaluation.

For assay [2], the target named is T1, GLP-1 R. Put plainly: DiscoveRx LeadHunter cellular assay, arrestin activation, GLP-1 receptor. It is filed as cell-based. The method, then: as §1

T1 sequence (P43220 24-463): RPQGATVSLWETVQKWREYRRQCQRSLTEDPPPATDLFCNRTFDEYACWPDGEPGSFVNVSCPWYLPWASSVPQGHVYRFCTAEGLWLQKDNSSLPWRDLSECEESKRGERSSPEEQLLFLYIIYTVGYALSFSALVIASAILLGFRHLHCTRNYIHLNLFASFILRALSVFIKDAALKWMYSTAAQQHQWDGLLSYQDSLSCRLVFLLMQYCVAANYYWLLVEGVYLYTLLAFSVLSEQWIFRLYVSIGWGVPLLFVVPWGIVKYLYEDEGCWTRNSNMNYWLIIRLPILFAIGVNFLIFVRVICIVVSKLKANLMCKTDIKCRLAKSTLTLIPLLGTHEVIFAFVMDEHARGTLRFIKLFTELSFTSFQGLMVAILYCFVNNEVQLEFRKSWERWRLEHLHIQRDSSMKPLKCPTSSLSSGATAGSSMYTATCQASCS
T2 sequence (P47871 26-477): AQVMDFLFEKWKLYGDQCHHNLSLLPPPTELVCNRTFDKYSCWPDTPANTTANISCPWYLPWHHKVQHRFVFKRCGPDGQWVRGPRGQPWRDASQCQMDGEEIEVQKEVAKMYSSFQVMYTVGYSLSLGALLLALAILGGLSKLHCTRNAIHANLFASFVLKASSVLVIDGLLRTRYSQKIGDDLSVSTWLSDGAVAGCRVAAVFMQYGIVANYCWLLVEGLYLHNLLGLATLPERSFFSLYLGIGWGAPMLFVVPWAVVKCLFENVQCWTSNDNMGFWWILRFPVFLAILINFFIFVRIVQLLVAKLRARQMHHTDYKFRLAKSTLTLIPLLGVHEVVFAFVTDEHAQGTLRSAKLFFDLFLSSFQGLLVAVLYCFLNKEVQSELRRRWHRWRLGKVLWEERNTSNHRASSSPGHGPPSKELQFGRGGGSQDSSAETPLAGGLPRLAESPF

Turning to `CCCCCCCCCCCCO[C@@H]1O[C@H](C(=O)NCCCC[C@H](NC(=O)[C@@H](NC(=O)[C@H](Cc2ccccc2)NC(=O)[C@H](CCC(=O)O)NC(=O)[C@@H]2CCCCNC(=O)CC[C@H](NC(=O)[C@H](CC(=O)O)NC(=O)[C@H](CC(C)C)NC(=O)[C@H](Cc3ccc(O)cc3)NC(=O)[C@H](CCCCN)NC(=O)[C@H](CO)NC(=O)[C@H](Cc3ccc(O)cc3)NC(=O)[C@H](CC(=O)O)NC(=O)[C@H](CO)NC(=O)[C@@H](NC(=O)[C@H](Cc3ccccc3)NC(=O)[C@@H](NC(=O)CNC(=O)[C@H](CCC(N)=O)NC(=O)C(C)(C)NC(=O)[C@@H](N)Cc3c[nH]cn3)[C@@H](C)O)[C@@H](C)O)C(=O)N[C@@H](CCC(N)=O)C(=O)N[C@@H](C)C(=O)N[C@@H](C)C(=O)N2)[C@@H](C)CC)C(=O)N[C@@H](Cc2c[nH]c3ccccc23)C(=O)N[C@@H](CC(C)C)C(=O)N[C@@H](CC(C)C)C(=O)N[C@@H](CCC(N)=O)C(=O)N[C@H](C(N)=O)[C@@H](C)O)[C@@H](O)[C@H](O)[C@H]1O` [EU-A993, His1-Aib2-Gln3-Gly4-Thr5-Phe6-Thr7-Ser8-Asp9-Tyr10-Ser11-Lys12-Tyr13-Leu14-Asp15-Glu*16-Gln17 Ala18-Ala19-Lys*20-Glu21-Phe22-Ile23-Lys(N-omega(1-dodecylbeta-D-glucuronyl))24-Trp25-Leu26-Leu27-Gln28-Thr29-NH2], the EC50 – broadly, the concentration needed to bring the measured effect to its halfway point – on GLP-1 R [1] was under 0.05 nM. At glucagon R, this molecule had an EC50 of under 0.05 nM. Also, in the assay on db/db mice (250 nmole/kg s.c.), the “db/db mice - Mean Blood Glucose, 0 hr” value was found to be 503 mg/dL; the “db/db mice - Mean Blood Glucose, 10 hr” value is recorded as 305 mg/dL; the “db/db mice - Mean Blood Glucose, 24 hr” value is 324 mg/dL; the “db/db mice - Mean Blood Glucose, 48 hr” value is 426 mg/dL. Also, at GLP-1 R [2], the EC50 was found to be 12.3 nM.
In turn, `CCCCCCCCCCCCCCO[C@@H]1O[C@H](C(=O)NCCCC[C@H](NC(=O)[C@@H](NC(=O)[C@H](Cc2ccccc2)NC(=O)[C@H](CCC(=O)O)NC(=O)[C@@H]2CCCCNC(=O)CC[C@H](NC(=O)[C@H](CC(=O)O)NC(=O)[C@H](CC(C)C)NC(=O)[C@H](Cc3ccc(O)cc3)NC(=O)[C@H](CCCCN)NC(=O)[C@H](CO)NC(=O)[C@H](Cc3ccc(O)cc3)NC(=O)[C@H](CC(=O)O)NC(=O)[C@H](CO)NC(=O)[C@@H](NC(=O)[C@H](Cc3ccccc3)NC(=O)[C@@H](NC(=O)CNC(=O)[C@H](CCC(N)=O)NC(=O)C(C)(C)NC(=O)[C@@H](N)Cc3c[nH]cn3)[C@@H](C)O)[C@@H](C)O)C(=O)N[C@@H](CCC(N)=O)C(=O)N[C@@H](C)C(=O)N[C@@H](C)C(=O)N2)[C@@H](C)CC)C(=O)N[C@@H](Cc2c[nH]c3ccccc23)C(=O)N[C@@H](CC(C)C)C(=O)N[C@@H](CC(C)C)C(=O)N[C@@H](CCC(N)=O)C(=O)N[C@H](C(N)=O)[C@@H](C)O)[C@@H](O)[C@H](O)[C@H]1O` [EU-A994, His1-Aib2-Gln3-Gly4-Thr5-Phe6-Thr7-Ser8-Asp9-Tyr10-Ser11-Lys12-Tyr13-Leu14-Asp15-Glu*16-Gln17 Ala18-Ala19-Lys*20-Glu21-Phe22-Ile23-Lys(N-omega(1-tetradecylbeta-D-glucuronyl))24-Trp25-Leu26-Leu27-Gln28-Thr29-NH2] came in with an EC50 at GLP-1 R [1] of 0.05 nM. In addition, on glucagon R, the EC50 is under 0.05 nM. Further, in the assay with db/db mice (300 nmole/kg s.c.), the “db/db mice - Mean Blood Glucose, 0 hr” value is on record as 554 mg/dL; the “db/db mice - Mean Blood Glucose, 10 hr” value is reported as 242 mg/dL; the “db/db mice - Mean Blood Glucose, 24 hr” value is 209 mg/dL; the “db/db mice - Mean Blood Glucose, 48 hr” value is 385 mg/dL. Further, in the assay with db/db mice (db/db mice, 10 and 24 hours, high dose (300 nmoles/kg)), the “glucose levels versus vehicle” value is recorded as “significantly different from vehicle”. Moreover, in the assay with db/db mice (db/db mice, Day 1, high dose (300 nmoles/kg)), the “food consumption versus Liraglutide” value is given as “significantly different from Liraglutide”. Besides, in the assay with db/db mice (db/db mice, Days 2 and 3, liraglutide 50 nmoles/kg, test articles high dose (300 nmoles/kg)), the “body weight changes against vehicle” value is reported as “Significant body weight changes”. In addition, the EC50 at GLP-1 R [2] worked out at 10.2 nM.
On GLP-1 R [1], `CCCCCCCCCCCO[C@@H]1O[C@H](C(=O)NCCCC[C@H](NC(=O)[C@@H](NC(=O)[C@H](Cc2ccccc2)NC(=O)[C@H](CCC(=O)O)NC(=O)[C@@H]2CCCCNC(=O)CC[C@H](NC(=O)[C@H](CC(=O)O)NC(=O)[C@H](CC(C)C)NC(=O)[C@H](Cc3ccc(O)cc3)NC(=O)[C@H](CCCCN)NC(=O)[C@H](CO)NC(=O)[C@H](Cc3ccc(O)cc3)NC(=O)[C@H](CC(=O)O)NC(=O)[C@H](CO)NC(=O)[C@@H](NC(=O)[C@H](Cc3ccccc3)NC(=O)[C@@H](NC(=O)CNC(=O)[C@H](CCC(N)=O)NC(=O)C(C)(C)NC(=O)[C@@H](N)Cc3c[nH]cn3)[C@@H](C)O)[C@@H](C)O)C(=O)N[C@@H](CCC(N)=O)C(=O)N[C@@H](C)C(=O)N[C@@H](C)C(=O)N2)[C@@H](C)CC)C(=O)N[C@@H](Cc2c[nH]c3ccccc23)C(=O)N[C@@H](CC(C)C)C(=O)N[C@@H](CC(C)C)C(=O)N[C@@H](CCC(N)=O)C(=O)N[C@H](C(N)=O)[C@@H](C)O)[C@@H](O)[C@H](O)[C@H]1O` [EU-A1168, His1-Aib2-Gln3-Gly4-Thr5-Phe6-Thr7-Ser8-Asp9-Tyr10-Ser11-Lys12-Tyr13-Leu14-Asp15-Glu*16-Gln17 Ala18-Ala19-Lys*20-Glu21-Phe22-Ile23-Lys(N-omega(1-undecylbeta-D-glucuronyl))24-Trp25-Leu26-Leu27-Gln28-Thr29-NH2] returned an EC50 of 0.07 nM. At glucagon R, this molecule gave an EC50 of 0.14 nM. In addition, in the assay on db/db mice (250 nmole/kg s.c.), the “db/db mice - Mean Blood Glucose, 0 hr” value is given as 380 mg/dL; the “db/db mice - Mean Blood Glucose, 10 hr” value worked out at 133 mg/dL; the “db/db mice - Mean Blood Glucose, 24 hr” value turned out to be 169 mg/dL; the “db/db mice - Mean Blood Glucose, 48 hr” value is 164 mg/dL.

The values are drawn from patent US11065304B2, “Peptide pharmaceuticals for insulin resistance” (MEDERIS DIABETES, LLC, priority 2012, dated 2021).
